Earlier results in patent publication US20200197416A1, “PHARMACEUTICAL COMPOSITION COMPRISING ABIRATERONE ACETATE AND DARULOTAMIDE” (NanGenex Nanotechnology Incorporated, priority 2017, published 2020).
Where two headings read alike, the source gives them in different places. Each block holds one molecule with its values, some of them ahead of it.

Assays:
[1] = tested on: serum testosterone and other androgens; conditions: patients, placebo-controlled phase 3 clinical trial
[2] = target: P-glycoprotein (P-gp) (Homo sapiens, UniProt P08183)
Chain of P-glycoprotein (P-gp) (P08183 whole entry): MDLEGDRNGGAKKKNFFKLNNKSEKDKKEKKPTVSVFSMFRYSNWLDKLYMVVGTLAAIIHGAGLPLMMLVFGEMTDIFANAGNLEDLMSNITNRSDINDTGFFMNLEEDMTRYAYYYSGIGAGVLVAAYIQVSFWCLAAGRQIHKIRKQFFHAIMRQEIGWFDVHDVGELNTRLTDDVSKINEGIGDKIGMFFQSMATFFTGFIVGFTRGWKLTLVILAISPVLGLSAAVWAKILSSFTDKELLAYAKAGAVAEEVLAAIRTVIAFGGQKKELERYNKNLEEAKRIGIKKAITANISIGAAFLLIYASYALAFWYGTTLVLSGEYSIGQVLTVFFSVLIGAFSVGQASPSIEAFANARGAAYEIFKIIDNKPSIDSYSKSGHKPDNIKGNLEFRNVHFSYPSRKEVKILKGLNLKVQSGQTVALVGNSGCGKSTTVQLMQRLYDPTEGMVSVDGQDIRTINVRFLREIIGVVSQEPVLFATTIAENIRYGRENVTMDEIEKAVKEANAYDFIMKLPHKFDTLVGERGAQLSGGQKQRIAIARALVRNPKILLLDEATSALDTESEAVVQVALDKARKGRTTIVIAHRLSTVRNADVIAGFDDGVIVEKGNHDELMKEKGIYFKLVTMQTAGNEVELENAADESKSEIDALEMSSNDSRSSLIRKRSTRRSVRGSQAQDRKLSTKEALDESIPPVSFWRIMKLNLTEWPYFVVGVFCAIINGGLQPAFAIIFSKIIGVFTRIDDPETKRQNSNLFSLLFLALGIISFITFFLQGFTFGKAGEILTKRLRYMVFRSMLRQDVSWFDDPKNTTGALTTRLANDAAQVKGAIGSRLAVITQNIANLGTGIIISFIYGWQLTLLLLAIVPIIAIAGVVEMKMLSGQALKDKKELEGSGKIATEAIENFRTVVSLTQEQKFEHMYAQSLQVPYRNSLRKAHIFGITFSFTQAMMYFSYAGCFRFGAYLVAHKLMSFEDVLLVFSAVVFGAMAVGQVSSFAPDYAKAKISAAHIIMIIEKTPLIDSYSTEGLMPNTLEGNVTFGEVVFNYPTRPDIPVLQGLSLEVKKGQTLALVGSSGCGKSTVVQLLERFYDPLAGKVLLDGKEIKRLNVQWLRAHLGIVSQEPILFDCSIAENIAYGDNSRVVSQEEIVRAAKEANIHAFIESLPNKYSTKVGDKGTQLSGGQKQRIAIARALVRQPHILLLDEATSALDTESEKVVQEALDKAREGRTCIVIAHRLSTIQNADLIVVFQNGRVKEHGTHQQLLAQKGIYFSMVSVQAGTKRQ

[3] = for compound present in feces, % of the administered dose: oral 14C-abiraterone acetate
[4] = not given; remark: listed apart in the source
[5] = not given; remark: listed apart in the source
[6] = not given; remark: listed apart in the source
[7] = tested on: human plasma proteins, albumin and alpha-1 acid glycoprotein
[8] = for geometric mean Cmax,md / median tmax.md: day 7
[9] = tested on: PSA levels; conditions: early phase clinical trials, Western mCRPC patients
[10] = not given; remark: listed apart in the source
[11] = in vivo
[12] = tested on: AR; conditions: preclinical trials
[13] = 1,000 mg daily, patients with metastatic CRPC
[14] = high-fat (57% fat, 825 calories) meal
[15] = low-fat meal (7% fat, 300 calories)
[16] = single dose of Abiraterone acetate, up to

Cmax,md versus Cmax after single dose under fed conditions ([8]; 300 mg): approximately 1.8 times
geometric mean AUCtau(0-12)md ([8]; 300 mg BID): 44.4 µg·h/mL
mean linearity factor (RLIN) ([8]; 300 mg BID): 0.910
geometric mean Cmax,md ([8]; 300 mg BID): 4.60 µg/mL
median tmax.md ([8]; 300 mg BID): 4.98 h
Cmax,md versus Cmax after single dose under fed conditions ([8]; 600 mg): ~1.7 times
geometric mean AUCtau(0-12)md ([8]; 600 mg BID): 58.7 µg·h/mL
mean linearity factor (RLIN) ([8]; 600 mg BID): 0.961
geometric mean Cmax,md ([8]; 600 mg BID): 5.80 µg/mL
median tmax.md ([8]; 600 mg BID): 5.48 h
increase in exposure after multiple dosing with 600 mg BID versus 300 mg BID ([8]; in vivo): 1.3 fold
Cmax after single dose under fed conditions ([10]; 300 mg single dose, fed): 2.59 µg/mL
Cmax after single dose under fed conditions ([10]; 600 mg single dose, fed): 3.50 µg/mL
AUC(0-t last) fed state compared with fasting state ([10]; after 300 and 600 mg): 2.5 fold
bioavailability fed versus fasting conditions ([10]; single oral dose 300 mg): 2.5 fold
bioavailability fed versus fasting conditions ([10]; single oral dose 600 mg): 2.8 fold
overall median tmax ([10]; single-dose period): 3 to 6 h
terminal half-life ([10]; single-dose period): 10 to 15 h
blood-brain barrier penetration [11]: negligible
binding affinity compared with other AR antagonists (such as bicalutamide and enzalutamide) [12]: higher binding affinity
Molecule: CC(O)c1cc(C(=O)N[C@@H](C)Cn2ccc(-c3ccc(C#N)c(Cl)c3)n2)n[nH]1 (stereo partly drawn) [Darolutamide]
PSA levels [9]: significant reductions

exposure to metabolite keto-Darolutamide compared with Darolutamide ([10]; single dose 300 mg, fasting): 1.28 fold
exposure to metabolite keto-Darolutamide compared with Darolutamide ([10]; single dose 300 mg, fed): 1.33 fold
exposure to metabolite keto-Darolutamide compared with Darolutamide ([10]; single dose 600 mg, fasting): 1.44 fold
exposure to metabolite keto-Darolutamide compared with Darolutamide ([10]; single dose 600 mg, fed): 1.61 fold
Molecule: CC(=O)c1cc(C(=O)N[C@@H](C)Cn2ccc(-c3ccc(C#N)c(Cl)c3)n2)[nH]n1 [keto-Darolutamide]

Second part, the molecule before the results:

Molecule: CC(=O)O[C@H]1CC[C@@]2(C)C(=CC[C@@H]3[C@@H]2CC[C@]2(C)C(c4cccnc4)=CC[C@@H]32)C1 [Abiraterone acetate, (3β)-17-(3-pyridinyl) androsta-5,16-dien-3-yl acetate]
Abiraterone acetate plasma concentrations (clinical studies, below detectable levels in >99% of the analyzed samples): < 0.2 ng/mL
effect on serum testosterone and other androgens [1]: decreased
inhibition of P-gp ([2]; not told): inhibitor of P-gp
substrate of P-glycoprotein (P-gp) ([2]; not told): not substrates
compound present in feces, % of the administered dose [3]: approximately 55%
pKa of the aromatic nitrogen [4]: 5.19
solubility in water [5]: practically insoluble

Molecule: C[C@]12CC[C@H](O)CC1=CC[C@@H]1[C@@H]2CC[C@]2(C)C(c3cccnc3)=CC[C@@H]12 [Abiraterone]
steady-state AUC (mean±SD) [13]: 993 ± 639 ng·h/mL
steady-state C. (mean±SD) [13]: 226 ± 178 ng/mL
increase in the mean AUC when dose doubled (dose doubled from 1,000 to 2,000 mg): 8%
apparent steady-state volume of distribution (mean±SD) (human, in vivo): 19,669±13,358 L
median time to reach maximum plasma Abiraterone concentrations (oral Abiraterone acetate, patients with metastatic CRPC): 2 h
mean terminal half-life of Abiraterone in plasma (mean±SD) (patients with metastatic CRPC): 12 ± 5 h
accumulation: steady-state AUC compared to a single 1,000 mg dose (steady-state vs single 1,000 mg dose of Abiraterone acetate): 2 fold
substrate of P-glycoprotein (P-gp) ([2]; in vitro, clinically relevant concentrations): not substrates
Abiraterone AUC0-28, fold higher with food [6, 14]: ~10 fold
Abiraterone Cmax, fold higher with food [6, 14]: approximately 17 fold
Abiraterone AUC0-28, fold higher with food [6, 15]: ~5 fold
Abiraterone Cmax, fold higher with food [6, 15]: approximately 7 fold
Abiraterone AUC0-28 (exposure) increase (food effect) [6, 16]: ≤ 10 fold
Abiraterone Cmax increase (food effect) [6, 16]: up to 17 fold
bound to human plasma proteins [7]: > 99%
compound present in feces, % of the administered dose [3]: ~22%

Molecule: C[C@]12CC[C@H](OS(=O)(=O)O)CC1=CC[C@@H]1[C@@H]2CC[C@]2(C)C(c3ccc[n+]([O-])c3)=CC[C@@H]12 [N-oxide Abiraterone sulphate]
share of exposure of circulating metabolite in human plasma ([3]; oral 14C-abiraterone acetate as capsules): about 43%

Molecule: (3β)-17-(3-pyridinyl) androsta-5,16-dien-3-yl acetate [Abiraterone acetate]
radioactive dose recovered in feces ([3]; oral administration): approximately 88%
radioactive dose recovered in urine ([3]; oral administration): approximately 5%
